{"source": "patent US20190133933A1", "about": "“FORMULATIONS AND METHODS FOR REDUCTION OF INTRAOCULAR PRESSURE” (CLEARSIDE BIOMEDICAL, INC., priority 2016, published 2019)", "test_system": "normotensive dogs", "experiment": "Poststudy efficacy challenge: single topical ocular dose, IOP followed for 24 hours", "type": "in vivo, female beagle dogs", "description": "IOP was measured by using a TonoVet according to a study-specific procedure. IOP measurements consisted of three independent readings per eye per time point from each eye. Following approximately 4 weeks of washout, animals in both groups were administered latanoprost in the right eye and phosphate-buffered saline (PBS) in the left eye, and IOP measurements were followed for 24 hours. As applicable, the dosing solution was drawn up into a 1-mL luer-lock syringe using a standard 21-gauge, 1-inch needle. Bubbles were expressed and the standard needle was replaced by a 30-gauge microneedle 1100 μm in length. […] Following the injection, the needle was kept in the eye for approximately 10 seconds before being withdrawn. Upon withdrawal of the microneedle, a cotton-tipped applicator (CTA, dose wipe) was placed over the injection site for approximately 10 seconds. The right eye was dosed first and all post-dose times were based on the time of dosing of the second (left) eye.\nApproximately 8 weeks after dose administration, all animals underwent a poststudy efficacy challenge. A positive displacement pipette was used to administer a single 35-μL dose of latanoprost to the right eye and phosphate-buffered saline (PBS) to the left eye. IOP was measured prior to dose administration (approximately −1 and 0 hours), and at 2, 4, 6, 8, and 24 hours following treatment. […]", "data": [{"smiles": "CC(C)OC(=O)CCC/C=C\\C[C@@H]1[C@@H](CC[C@@H](O)CCc2ccccc2)[C@H](O)C[C@@H]1O", "note": "[Latanoprost]", "values": [{"measurement": "effect on IOP", "setting": "right eyes vs PBS left eyes kept at about baseline (FIGS. 13-16)", "result": "decreased the IOP"}, {"measurement": "mean maximum effective decrease (Emax) in IOP values", "setting": "single 35-μL topical ocular dose, right eye, Groups 1 and 2", "result": "3-5 mm Hg"}]}]}
